The record followed here is ChEMBL document CHEMBL1268944, “The antiplasmodial activity of norcantharidin analogs” (Bioorg Med Chem Lett, 2010).

Structures are written as SMILES.

For orientation: IC50 means the concentration that gives 50% inhibition. For orientation: inhibition means the relative decrease from the control value, in per cent. A high value points to strong suppression.

Data set [1] concerns Plasmodium falciparum. Put plainly: Antiplasmodial activity against chloroquine-sensitive Plasmodium falciparum D6 assessed as inhibition of parasite LDH activity after 72 hrs by malstat reagent method. The format is functional, organism-based. The conditions noted are these: D6, 72 h.
Data set [2] can be described thus: Inhibition of human PP1 expressed in Escherichia coli BL21.
Data set [3] has as its system Plasmodium falciparum. Put plainly: Antiplasmodial activity against chloroquine-resistant Plasmodium falciparum W2 assessed as inhibition of parasite LDH activity […] after 72 hrs by malstat reagent method. The data set is classed as functional, organism-based. The conditions noted are these: W2, 72 h.
Data set [4] in a line: Inhibition of human PP2A expressed in Escherichia coli BL21.
Data set [5] can be described thus: Solubility of the compound in PP2A assay medium at 40 mM. The format is physicochemical. The settings on record: 40000 µM.
A short description of data set [6]: Solubility of the compound in PP1 assay medium at 40 mM. The data set is classed as physicochemical. The settings on record: 40000 µM.
The species named for data set [7] is Homo sapiens. Put plainly: Inhibition of human PP1 at 100 uM.
For data set [8], the species on record is Homo sapiens. Put plainly: Inhibition of human PP2A at 100 uM.
Data set [9] deals with Plasmodium falciparum. Put plainly: Ratio of Norcantharidin IC50 to compound IC50 for chloroquine-resistant Plasmodium falciparum W2. The data set is classed as functional.
The nature of data set [10]: Inhibition of human PP1.
The test system of data set [11] is Plasmodium falciparum. Put plainly: Ratio of Norcantharidin IC50 to compound IC50 for chloroquine-sensitive Plasmodium falciparum D6. The data set is classed as functional.
Data set [12] in a line: Inhibition of human PP2A.

Take `O=C1OC(=O)C2C3CCC(O3)C12` (stereo unspecified) [DEMETHYL-CANTHARIDIN]: the IC50 in the data set on Plasmodium falciparum [1] turned out to be 60 µM; in data set [2], 2 µM; with Plasmodium falciparum [3] it was 50 µM; in [4] it was 0.4 µM.

For `C=CCCNC(=O)C1C(C(=O)O)[C@@H]2CC[C@H]1O2` (stereo partly specified), the IC50 with Plasmodium falciparum [1] and with Plasmodium falciparum [3] was greater than 500 µM each time. The solubility result in data set [5] and in data set [6] was “Insoluble” in each case.

With `O=C(O)C1C(C(=O)Nc2ccccc2O)[C@H]2CC[C@@H]1O2` (stereo partly specified), the IC50 was determined as 385 µM with Plasmodium falciparum [1] and 380 µM in the data set with Plasmodium falciparum [3]. For the same molecule, the inhibition stood at 33% in the data set filed under Homo sapiens [7] and 9.8% in the data set filed under Homo sapiens [8].

On to `C=CCNC(=O)C1C(C(=O)O)[C@@H]2CC[C@H]1O2` (stereo partly specified), for which the IC50 stood at 3 µM in the data set with Plasmodium falciparum [1], 3 µM in the data set with Plasmodium falciparum [3], 40 µM in data set [10] and 10 µM in data set [12]. The “Ratio IC50” value in the data set on Plasmodium falciparum [9] and in the data set on Plasmodium falciparum [11] was 20 each time.

For the molecule `O=C(O)C1C(C(=O)Nc2ccccc2CO)[C@H]2CC[C@@H]1O2` (stereo partly specified), the IC50 came out at 275 µM in the data set with Plasmodium falciparum [1] and 333 µM with Plasmodium falciparum [3]. The inhibition in the data set filed under Homo sapiens [7] was 84%; in the data set listed under Homo sapiens [8], 30%.

Regarding `C[C@@]12C(=O)OC(=O)[C@]1(C)[C@H]1CC[C@@H]2O1` [CANTHARIDIN], the IC50 with Plasmodium falciparum [1] was found to be 9 µM; in [2], 1.8 µM; in the data set with Plasmodium falciparum [3] it was 9 µM; in data set [4], 0.2 µM.

For the molecule `O=C(O)[C@@H]1[C@H](C(=O)O)[C@H]2CC[C@@H]1O2` [ENDOTHALL], the IC50 in data set [2] is 4 µM; in [4] it was 0.09 µM.

As to `O=C(O)C1C(C(=O)Nc2cccc3ccccc23)[C@H]2CC[C@@H]1O2` (stereo partly specified), the IC50 came out at 210 µM in the data set on Plasmodium falciparum [1] and 193 µM in the data set on Plasmodium falciparum [3]. Moreover, the inhibition in the data set listed under Homo sapiens [7] is 79%; in the data set filed under Homo sapiens [8] it was 73%.

As for `CCCCCCCCCCCCNC(=O)C1C(C(=O)O)[C@@H]2CC[C@H]1O2` (stereo partly specified), the IC50 in the data set with Plasmodium falciparum [1] is 70 µM; in the data set with Plasmodium falciparum [3], 106 µM. Besides, the solubility entry in [5] and in [6] was “Insoluble” in each case.

Regarding `CC(C)(C)c1ccccc1NC(=O)C1C(C(=O)O)[C@@H]2CC[C@H]1O2` (stereo partly specified), the IC50 in the data set on Plasmodium falciparum [1] and with Plasmodium falciparum [3] was greater than 500 µM in each case. Also, the inhibition in the data set listed under Homo sapiens [7] is 9%; in the data set filed under Homo sapiens [8], 16%.

For the molecule `CC(C)(C)c1ccc(C(C)(C)C)c(NC(=O)C2C(C(=O)O)[C@@H]3CC[C@H]2O3)c1` (stereo partly specified), the IC50 is 40 µM in the data set with Plasmodium falciparum [1] and 205 µM in the data set with Plasmodium falciparum [3]. Besides, the solubility entry in data set [5] and in data set [6] was “Insoluble” in each case.

For `CSc1ccccc1NC(=O)C1C(C(=O)O)[C@@H]2CC[C@H]1O2` (stereo partly specified), the results for the IC50 in the data set with Plasmodium falciparum [1] and in the data set with Plasmodium falciparum [3] were 340 µM and greater than 500 µM, respectively. Moreover, the figures for the inhibition in the data set listed under Homo sapiens [7] and in the data set filed under Homo sapiens [8] were 76% and 58%, respectively.

As for `Cc1cc(C)c(NC(=O)C2C(C(=O)O)[C@@H]3CC[C@H]2O3)c(C)c1` (stereo partly specified), the figures for the IC50 in the data set with Plasmodium falciparum [1] and in the data set with Plasmodium falciparum [3] were 340 µM and greater than 500 µM, respectively. The inhibition in the data set listed under Homo sapiens [7] worked out at 63%; in the data set listed under Homo sapiens [8], 23%.

As to `Cc1cccc(C)c1NC(=O)C1C(C(=O)O)[C@@H]2CC[C@H]1O2` (stereo partly specified), the IC50 in the data set with Plasmodium falciparum [1] amounted to 306 µM; in the data set with Plasmodium falciparum [3], 290 µM. In addition, the inhibition in the data set filed under Homo sapiens [7] is 68%; in the data set listed under Homo sapiens [8], 24%.
